Assay results from the supplement of paper PMC10307832.

Key:
Experiment in all cases: relative viability (nuclei count vs DMSO), 5 days (fraction); higher = more cells survive
Decitabine + Pictilisib = compound: Nc1ncn([C@H]2C[C@H](O)[C@@H](CO)O2)c(=O)n1 [Decitabine] + CS(=O)(=O)N1CCN(Cc2cc3nc(-c4cccc5[nH]ncc45)nc(N4CCOCC4)c3s2)CC1 [Pictilisib] (partner 1 µM)
Procedure, shortened: (§1)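 The day after seeding in 1536-well plates, lung cancer cell lines were treated by pin tool with a single drug, or with a fixed anchor-drug dose together with five library-drug doses (not always all listed) in √10 steps. After 5 days, a combined fix-and-stain solution (final 0.05% Triton X-100, 1% formaldehyde, 1 ug/ml Hoechst) was added. Nuclei counted on 4× images gave relative viability as treated counts over vehicle counts, reported as the median of duplicate plates.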

Cediranib + Linsitinib = compound: COc1cc2c(Oc3ccc4[nH]c(C)cc4c3F)ncnc2cc1OCCCN1CCCC1 [Cediranib] + C[C@]1(O)C[C@@H](c2nc(-c3ccc4ccc(-c5ccccc5)nc4c3)c3c(N)nccn32)C1 [Linsitinib] (partner 1 µM)
Procedure, shortened: as §1

Cediranib + Pemetrexed = compound: COc1cc2c(Oc3ccc4[nH]c(C)cc4c3F)ncnc2cc1OCCCN1CCCC1 [Cediranib] + Nc1nc2[nH]cc(CCc3ccc(C(=O)N[C@@H](CCC(=O)O)C(=O)O)cc3)c2c(=O)[nH]1 [Pemetrexed] (partner 0.2 µM)
Procedure, shortened: as §1

Cediranib + Bortezomib = compound: COc1cc2c(Oc3ccc4[nH]c(C)cc4c3F)ncnc2cc1OCCCN1CCCC1 [Cediranib] + CC(C)C[C@H](NC(=O)[C@H](Cc1ccccc1)NC(=O)c1cnccn1)B(O)O [Bortezomib] (partner 0.002 µM)
Procedure, shortened: as §1

Cell Line	relative viability (Decitabine + Pictilisib; first compound 0.04 µM)	relative viability (Decitabine + Pictilisib; first compound 0.1265 µM)	relative viability (Decitabine + Pictilisib; first compound 0.4 µM)	relative viability (Decitabine + Pictilisib; first compound 1.265 µM)	relative viability (Decitabine + Pictilisib; first compound 4 µM)	relative viability (Cediranib + Linsitinib; first compound 0.04 µM)	relative viability (Cediranib + Linsitinib; first compound 0.1265 µM)	relative viability (Cediranib + Linsitinib; first compound 0.4 µM)	relative viability (Cediranib + Linsitinib; first compound 1.265 µM)	relative viability (Cediranib + Linsitinib; first compound 4 µM)	relative viability (Cediranib + Pemetrexed; first compound 0.04 µM)	relative viability (Cediranib + Pemetrexed; first compound 0.1265 µM)	relative viability (Cediranib + Pemetrexed; first compound 0.4 µM)	relative viability (Cediranib + Pemetrexed; first compound 1.265 µM)	relative viability (Cediranib + Pemetrexed; first compound 4 µM)	relative viability (Cediranib + Bortezomib; first compound 0.04 µM)	relative viability (Cediranib + Bortezomib; first compound 0.1265 µM)	relative viability (Cediranib + Bortezomib; first compound 0.4 µM)	relative viability (Cediranib + Bortezomib; first compound 1.265 µM)	relative viability (Cediranib + Bortezomib; first compound 4 µM)
201T	0.655	0.817	0.93	0.695	0.531	1.11	1.18	0.941	1.01	0.974	0.344	0.314	0.327	0.359	0.355	1.16	1.19	1.09	1.05	1.09
A549	0.444	0.49	0.37	0.256	0.166	0.723	0.644	0.543	0.633	0.471	–	–	–	–	–	–	–	–	–	–
A-427	0.42	0.663	0.244	0.359	0.219	1.17	–	0.984	1.07	1.17	0.921	–	0.955	0.962	1.08	0.998	–	0.972	0.925	1.01
ABC-1	0.812	0.728	0.812	0.443	0.505	0.656	0.97	0.799	–	0.786	–	–	–	–	–	0.33	0.272	0.307	–	0.305
BEN	0.545	0.543	0.396	0.349	0.324	1.16	0.799	0.82	0.9	0.647	0.921	0.549	0.693	0.501	0.786	0.872	0.432	0.861	0.559	0.724
CAL-12T	0.299	0.499	0.332	0.339	0.301	0.95	0.864	0.691	0.865	0.714	1.03	1.29	1.14	1.13	1.03	0.88	–	0.931	1.07	1.12
COR-L23	0.527	0.619	0.239	0.178	0.172	1.08	0.871	0.939	0.806	1.14	0.203	0.209	0.2	0.214	0.202	0.944	1.05	0.867	0.969	1.18
COR-L 105	0.327	0.442	0.405	0.341	0.292	–	0.909	0.946	0.972	0.938	1.11	1.08	1.06	1.08	1.15	–	0.666	0.715	0.722	0.828
Calu-6	0.76	0.685	0.468	0.334	0.243	0.881	0.971	0.938	0.854	1.06	–	–	–	–	–	1.03	0.977	1.05	0.968	1.03
ChaGo-K-1	0.552	0.705	0.446	0.509	0.492	–	–	–	–	–	0.262	0.261	0.297	0.252	0.263	1.03	–	0.994	1.04	0.861
EBC-1	0.277	0.295	0.252	0.214	0.169	1.14	1.05	0.882	0.609	0.802	–	–	–	–	–	0.702	0.628	0.528	0.687	0.687
EKVX	0.37	0.387	0.391	0.252	0.241	1.05	1.03	0.889	1	0.86	0.512	0.412	0.384	–	0.441	1.12	0.892	0.975	0.939	0.865
EMC-BAC-2	0.529	0.557	0.468	0.411	0.37	0.872	0.832	0.799	0.777	0.837	0.565	0.47	0.433	0.464	0.477	1.06	0.69	1.03	1.02	1.07
EPLC-272H	0.277	0.303	–	0.271	0.321	1.17	–	1.16	1.18	1.29	0.361	0.345	0.375	0.37	0.282	0.997	–	0.923	0.794	0.949
H3255	0.189	0.462	0.342	0.331	0.358	1.04	1.04	0.89	0.898	0.912	0.588	0.542	0.567	0.533	0.54	0.808	0.842	0.776	0.731	0.814
HARA	0.367	0.564	0.285	0.236	0.15	0.916	1.14	0.96	0.955	0.975	0.194	0.248	0.28	0.303	0.299	1.18	1.01	1.11	1.14	1.07
HCC-15	0.742	0.767	0.288	0.484	0.411	0.873	–	0.793	0.947	1.02	0.209	0.222	0.226	0.218	0.22	1.06	–	1	1.12	1.01
HCC-44	0.537	0.71	0.353	0.412	0.372	0.7	–	0.636	0.654	0.729	0.695	0.589	0.637	0.656	0.682	0.825	–	0.873	0.932	0.975
HCC-78	0.233	0.241	0.229	0.21	0.228	0.664	0.625	0.478	0.487	0.502	0.912	0.879	0.901	0.899	0.901	0.51	0.576	0.504	0.533	0.601
HCC-366	0.221	0.221	0.229	0.11	0.0886	0.65	0.634	0.582	0.542	1.05	0.491	0.161	0.149	0.18	0.173	0.968	1.03	0.963	0.888	1.22
HCC-827	0.511	0.63	0.618	0.505	0.62	1.02	–	0.945	0.949	0.991	0.31	0.235	0.231	0.259	0.259	1.03	–	0.967	1.11	1.08

Cell Line	relative viability (Decitabine + Pictilisib; first compound 0.04 µM)	relative viability (Decitabine + Pictilisib; first compound 0.1265 µM)	relative viability (Decitabine + Pictilisib; first compound 0.4 µM)	relative viability (Decitabine + Pictilisib; first compound 1.265 µM)	relative viability (Decitabine + Pictilisib; first compound 4 µM)	relative viability (Cediranib + Linsitinib; first compound 0.04 µM)	relative viability (Cediranib + Linsitinib; first compound 0.1265 µM)	relative viability (Cediranib + Linsitinib; first compound 0.4 µM)	relative viability (Cediranib + Linsitinib; first compound 1.265 µM)	relative viability (Cediranib + Linsitinib; first compound 4 µM)	relative viability (Cediranib + Pemetrexed; first compound 0.04 µM)	relative viability (Cediranib + Pemetrexed; first compound 0.1265 µM)	relative viability (Cediranib + Pemetrexed; first compound 0.4 µM)	relative viability (Cediranib + Pemetrexed; first compound 1.265 µM)	relative viability (Cediranib + Pemetrexed; first compound 4 µM)	relative viability (Cediranib + Bortezomib; first compound 0.04 µM)	relative viability (Cediranib + Bortezomib; first compound 0.1265 µM)	relative viability (Cediranib + Bortezomib; first compound 0.4 µM)	relative viability (Cediranib + Bortezomib; first compound 1.265 µM)	relative viability (Cediranib + Bortezomib; first compound 4 µM)
HOP-62	0.668	0.585	0.239	0.159	0.162	1.11	–	1.04	0.853	1.18	0.576	0.305	0.252	0.39	0.313	0.322	–	0.672	0.68	0.842
IA-LM	0.253	0.269	0.163	0.147	0.0969	0.629	0.772	0.586	0.436	0.634	–	–	–	–	–	1.01	1.14	0.926	0.771	0.912
LC-2-ad	0.359	0.37	0.495	0.3	0.275	0.871	0.831	0.842	0.771	0.806	0.289	0.3	0.278	0.298	0.275	1.09	1.04	0.973	1.03	0.959
LCLC-97TM1	0.145	0.166	0.0979	0.105	0.117	0.192	–	0.175	0.144	0.28	0.205	–	0.154	0.218	0.177	0.351	–	0.643	0.769	0.578
LCLC-103H	0.638	0.669	0.526	0.655	0.647	1.19	1.12	1.04	1.02	1.18	0.502	0.477	0.514	0.427	0.475	0.989	1.12	0.921	1.14	1.11
LK-2	–	0.607	0.505	0.401	0.396	0.944	0.492	0.651	0.548	0.51	0.324	0.202	0.247	0.177	0.209	–	–	–	–	–
NCI-H358	0.315	0.335	0.352	0.313	0.25	0.919	0.745	0.681	0.717	0.899	0.176	0.198	0.168	0.17	0.187	–	–	–	–	–
NCI-H522	–	–	–	–	–	–	–	–	–	–	1.16	0.713	1.14	0.863	0.995	–	–	–	–	–
NCI-H727	0.272	0.353	0.316	0.418	0.257	0.293	0.267	0.33	0.372	0.279	–	–	–	–	–	0.807	0.55	0.789	0.64	0.747
NCI-H1299	0.836	0.881	0.829	0.619	0.505	1	0.977	0.96	0.988	0.947	–	–	–	–	–	1.06	1.06	1.03	1.03	1.04
NCI-H1395	0.57	0.579	0.522	0.417	0.458	0.937	–	1.11	1.16	0.936	0.915	0.985	0.825	0.76	0.801	–	–	–	–	–
NCI-H1648	–	–	–	–	–	–	–	–	–	–	0.563	0.551	0.617	0.634	0.372	–	–	–	–	–
NCI-H1650	0.445	0.595	0.272	0.47	0.399	–	–	–	–	–	0.394	0.364	0.38	0.349	0.384	0.201	0.169	0.205	0.223	0.194
NCI-H1703	0.29	0.258	0.196	0.234	0.181	0.458	0.452	0.372	0.26	0.183	–	–	–	–	–	0.309	0.294	0.192	0.181	0.206
NCI-H1793	0.308	0.351	0.245	0.302	0.224	0.903	0.935	0.747	–	0.968	0.822	0.991	0.693	0.568	1.14	–	–	–	–	–
NCI-H1944	0.353	0.424	0.369	0.319	0.299	1.38	1.45	1.14	1.02	1.12	0.709	0.473	0.562	0.593	0.713	–	–	–	–	–
NCI-H2170	0.256	0.254	0.312	0.285	0.269	–	–	–	–	–	0.295	–	0.233	0.264	0.258	–	–	–	–	–
NCI-H2342	–	–	–	–	–	–	–	–	–	–	0.764	0.808	0.805	0.681	0.797	–	–	–	–	–
SK-MES-1	0.258	0.367	0.427	0.271	0.243	1.04	1.04	1.06	0.959	1.13	1.02	1.01	0.901	0.964	1.03	–	–	–	–	–
SW 900	–	–	–	–	–	–	–	–	–	–	0.52	0.509	0.463	0.46	0.537	–	–	–	–	–
